This note sets out measurements from patent US20190359609A1, “BICYCLIC OGA INHIBITOR COMPOUNDS” (Janssen Pharmaceutica NV, priority 2016, published 2019).

This experiment concerns the target T1, recombinant human Meningioma Expressed Antigen 5 (MGEA5), also referred to as O-GlcNAcase (OGA) (Homo sapiens, UniProt O60502).
T1 construct: Full length OGA enzyme was purchased at OriGene (cat # TP322411); purchased OriGene TP322411
T1 sequence (O60502 1-916): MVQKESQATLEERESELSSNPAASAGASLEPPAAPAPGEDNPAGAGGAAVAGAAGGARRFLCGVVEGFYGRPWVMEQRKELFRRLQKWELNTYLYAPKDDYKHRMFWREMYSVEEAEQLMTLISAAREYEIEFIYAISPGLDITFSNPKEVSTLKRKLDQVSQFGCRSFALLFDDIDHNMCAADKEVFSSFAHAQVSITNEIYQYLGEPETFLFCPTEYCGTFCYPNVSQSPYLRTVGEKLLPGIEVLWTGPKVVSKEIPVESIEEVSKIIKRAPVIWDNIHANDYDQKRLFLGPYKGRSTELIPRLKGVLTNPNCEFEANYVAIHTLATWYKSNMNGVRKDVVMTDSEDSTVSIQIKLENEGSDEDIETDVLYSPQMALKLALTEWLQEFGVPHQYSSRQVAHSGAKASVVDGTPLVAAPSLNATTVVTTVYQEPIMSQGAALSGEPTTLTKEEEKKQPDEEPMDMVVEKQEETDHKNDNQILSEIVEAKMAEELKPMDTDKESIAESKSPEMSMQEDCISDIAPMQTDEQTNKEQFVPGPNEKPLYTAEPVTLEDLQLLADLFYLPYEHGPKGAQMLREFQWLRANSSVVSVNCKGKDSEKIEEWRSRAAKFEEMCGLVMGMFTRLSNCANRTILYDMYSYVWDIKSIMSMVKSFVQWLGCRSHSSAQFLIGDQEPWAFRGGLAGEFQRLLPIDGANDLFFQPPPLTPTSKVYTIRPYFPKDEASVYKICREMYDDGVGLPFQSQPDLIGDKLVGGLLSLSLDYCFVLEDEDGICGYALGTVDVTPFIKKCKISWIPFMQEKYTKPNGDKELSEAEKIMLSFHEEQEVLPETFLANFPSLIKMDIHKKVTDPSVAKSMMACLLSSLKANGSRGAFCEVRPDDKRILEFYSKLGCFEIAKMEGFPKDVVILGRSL
Put plainly: OGA biochemical assay: inhibition of FM-GlcNAc hydrolysis, fluorescence (protocol A 10 nM OGA, 1 h; protocol B 2 nM OGA, 6 h). An excerpt: The assay is based on the inhibition of the hydrolysis of fluorescein mono-B-D-N-Acetyl-Glucosamine (FM-GlcNAc) (Mariappa et al. 2015, Biochem J 470:255) by the recombinant human Meningioma Expressed Antigen 5 (MGEA5), also referred to as 0-GlcNAcase (OGA). The hydrolysis FM-GlcNAc (Marker Gene technologies, cat # M1485) results in the formation of β-D-N-glucosamineacetate and fluorescein. The fluorescence of the latter can be measured at excitation wavelength 485 nm and emission wavelength 538 nm. An increase in enzyme activity results in an increase in fluorescence signal. Full length OGA enzyme was purchased at OriGene (cat # TP322411). The enzyme was stored in 25 mM Tris.HCl, pH 7.3, 100 mM glycine, 10% glycerol at −20° C. Thiamet G and GlcNAcStatin were tested as reference compounds (Yuzwa et al. 2008 Nature Chemical Biology 4:483; Yuzwa et al. 2012 Nature Chemical Biology 8:393). The assay was performed in 200 mM Citrate/phosphate buffer supplemented with 0.005% Tween-20. 35.6 g Na2HPO4 2 H2O (Sigma, # C0759) were dissolved in 1 L water to obtain a 200 mM solution. 19.2 g citric acid (Merck, #1.06580) was dissolved in 1 L water to obtain a 100 mM solution. pH of the sodiumphosphate solution was adjusted with the citric acid solution to 7.2. The buffer to stop the reaction consists of a 500 mM Carbonate buffer, pH 11.0. 734 mg FM-GlcNAc were dissolved in 5.48 mL DMSO to obtain a 250 mM solution and was stored at −20° C. OGA was used at a 10 nM (protocol A) or 2 nM (protocol B) concentration and FM-GlcNAc at a 100 uM final concentration. Dilutions were prepared in assay buffer.
50 nl of a compound dissolved in DMSO was dispensed on Black Proxiplate™ 384 Plus Assay plates (Perkin Elmer, #6008269) and 3 μl fl-OGA enzyme mix added subsequently. Plates were pre-incubated for 60 min at room temperature and then 2 μl FM-GlcNAc substrate mix added. […] Plates were briefly centrifuged for 1 min at 1000 rpm and incubate at room temperature for 1 h (10 nM OGA, protocol A) or 6 h (2 nM OGA, protocol B). To stop the reaction 5 μl STOP buffer were added and plates centrifuge again 1 min at 1000 rpm. Fluorescence was quantified in the Thermo Scientific Fluoroskan Ascent or the PerkinElmer EnVision with excitation wavelength 485 nm and emission wavelength 538 nm.
For analysis a best-fit curve is fitted by a minimum sum of squares method. From this an IC50 value and Hill coefficient was obtained. High control (no inhibitor) and low control (saturating concentrations of standard inhibitor) were used to define the minimum and maximum values.

The mark [1] stands for this setting: Enzymatic protocol B (2 nM OGA, 6 h), read-out: Enzymatic Emax (%).
Where [2] appears, read: Enzymatic protocol B (2 nM OGA, 6 h), read-out: Enzymatic hOGA, pIC50 (converted).
Setting [3] is: Enzymatic protocol A (10 nM OGA, 1 h), read-out: Enzymatic hOGA, pIC50 (converted).
Setting [4] is: Enzymatic protocol B (2 nM OGA, 6 h).
Setting [5] is: Enzymatic protocol A (10 nM OGA, 1 h), read-out: Enzymatic Emax (%).

Read-outs that look alike come from different tables or passages of the source. Bounds are passed on as bounds.

Broadly, the Emax is the maximal effect, on the per cent scale that the assay sets. As to `CC(c1ccc2c(c1)OCO2)N1CCCC(c2cc3ncccc3n2C)C1` (racemic) [Compound 44], the Emax under setting [1] stood at 99%. Besides, the IC50 under setting [2] is 83.2 nM.
`CC(=O)Nc1ncc(S(=O)(=O)N2CCCC(c3cc4ncccc4[nH]3)C2)s1` (single isomer, unassigned) [Compound 3]: the “Enzymatic Emax (%)” value (Enzymatic protocol A (10 nM OGA, 1 h)) is listed as 99%. For the same compound, the IC50 under setting [3] was 562 nM.
For the compound `CC(=O)Nc1ncc(CN2CCCC(c3cc4cnccc4[nH]3)C2)s1` (single isomer, unassigned) [Compound 13], under setting [1], the Emax stood at 98.9%. Also, under setting [2], the IC50 is 22.9 nM.
Take `CC(=O)Nc1ncc(CN2CCCC(c3cc4cnccc4[nH]3)C2)s1` (single isomer, unassigned) [Compound 14]: the “Enzymatic Emax (%)” value under setting [4] came out at 96.3%. The IC50 under setting [2] is 676 nM.
Turning to `CC(c1ccc2c(c1)OCO2)N1CCCC(c2cc3ncccc3[nH]2)C1` (single isomer, unassigned) [Compound 29], under setting [4], the “Enzymatic Emax (%)” value is given as 73.5%. Besides, the IC50 under setting [2] is 3720 nM.
The matching figures for `CC(c1ccc2c(c1)OCO2)N1CCCC(c2cc3ncccc3[nH]2)C1` (single isomer, unassigned) [Compound 30]: 75.1% and 4070 nM.
The matching figures for `CC(c1ccc2c(c1)OCO2)N1CCCC(c2cc3ncccc3[nH]2)C1` (single isomer, unassigned) [Compound 32]: 89.4% and 1780 nM.
As to `CC(c1ccc2c(c1)OCCO2)N1CCCC(c2cc3ncccc3[nH]2)C1` (single isomer, unassigned) [Compound 34], the Emax under setting [1] amounted to 93.8%. The IC50 under setting [2] was 708 nM.
Consider `CC(c1ccc2c(c1)OCCO2)N1CCCC(c2cc3ncccc3[nH]2)C1` (single isomer, unassigned) [Compound 35], for which the “Enzymatic Emax (%)” value under setting [4] was 87.7%. Further, under setting [2], the IC50 is 2450 nM.
The matching figures for `CC(c1ccc2c(c1)OCCO2)N1CCCC(c2cc3ncccc3[nH]2)C1` (single isomer, unassigned) [Compound 36]: 101.3% and 11 nM.
The matching figures for `CC(c1ccc2c(c1)OCCO2)N1CCCC(c2cc3ncccc3[nH]2)C1` (single isomer, unassigned) [Compound 37]: 96.0% and 955 nM.
The matching figures for `Cn1c(C2CCCN(Cc3ccc4nccnc4c3)C2)cc2ncccc21` (single isomer, unassigned) [Compound 42]: 93.2% and 776 nM.
Take `Cn1c(C2CCCN(Cc3ccc4nccnc4c3)C2)cc2ncccc21` (single isomer, unassigned) [Compound 43]: the “Enzymatic Emax (%)” value under setting [4] worked out at 46.5%. The IC50 under setting [2] is above 10000 nM.
The matching figures for `CC(c1ccc2c(c1)OCO2)N1CCCC(c2cc3ncccc3n2C)C1` (single isomer, unassigned) [Compound 45]: 100% and 27.5 nM.
The matching figures for `CC(c1ccc2c(c1)OCO2)N1CCCC(c2cc3ncccc3n2C)C1` (single isomer, unassigned) [Compound 46]: 24.2% and above 10000 nM.
In the same order, the values of `CC(c1ccc2c(c1)OCO2)N1CCCC(c2cc3ncccc3n2C)C1` (single isomer, unassigned) [Compound 47] are 85.8% and 1550 nM.
Consider `CC(c1ccc2c(c1)OCO2)N1CCCC(c2cc3ncccc3n2C)C1` (single isomer, unassigned) [Compound 48], for which, under setting [4], the “Enzymatic Emax (%)” value was determined as 31.7%. Besides, the IC50 under setting [2] is above 10000 nM.
With `CC(=O)Nc1ncc(S(=O)(=O)N2CCCC(c3nc4ncccc4[nH]3)C2)s1` (stereo not drawn) [Compound 1], under setting [5], the Emax turned out to be 75.9%. Moreover, the IC50 under setting [3] was 1860 nM.
Turning to `CC(=O)Nc1ncc(CN2CCCC(c3cc4ncccc4[nH]3)C2)s1` (stereo not drawn) [Compound 5], the Emax was 99.7% under setting [5] and 99.7% (comparative table, protocol not given, read-out: Emax (OGA inhibitory activity, comparison with 1,4-disubstituted piperidine comparator)). The IC50 by setting is: under setting [3], 25.7 nM; (comparative table, protocol not given, read-out: pIC50 (OGA inhibitory activity, comparison with 1,4-disubstituted piperidine comparator) (converted)) 25.7 nM. Moreover, the “OGA inhibitory activity compared with comparator” value (greater than the corresponding 1,4-disubstituted piperidine compound (comparator)) is given as ~1 order of magnitude.
With `CC(=O)N(C)c1ncc(CN2CCCC(c3cc4ncccc4[nH]3)C2)s1` (stereo not drawn) [Compound 10], the Emax under setting [1] came out at 90.1%. Besides, the IC50 under setting [2] is 1020 nM.
Turning to `CC(=O)Nc1ncc(CN2CCOC(c3cc4ncccc4[nH]3)C2)s1` (stereo not drawn) [Compound 27], the Emax under setting [1] is 77.3%. For the same compound, the IC50 under setting [2] was 3160 nM.
Consider `c1cnc2cc(C3CCCN(Cc4ccc5c(c4)OCO5)C3)[nH]c2c1` (stereo not drawn) [Compound 38], for which the Emax under setting [5] came out at 99.9%. In addition, under setting [3], the IC50 was 1740 nM.
On to `Cn1c(C2CCCN(Cc3ccc4nccnc4c3)C2)cc2ncccc21` (stereo not drawn) [Compound 41], for which the Emax under setting [1] is 89.8%. Further, the IC50 under setting [2] is 1260 nM.
In the same order, the values of `Cn1c(C2CCCN(Cc3cc4c(cn3)OCCO4)C2)cc2ncccc21` (stereo not drawn) [Compound 50] are 52.3% and 8710 nM.
Take `Cn1c(C2CCCN(Cc3ccc4ccccc4n3)C2)cc2ncccc21` (stereo not drawn) [Compound 51]: the Emax under setting [1] was 56.7%. For the same compound, the IC50 under setting [2] is 7760 nM.
The matching figures for `Cn1c(C2CCCN(Cc3ccc4nsnc4c3)C2)cc2ncccc21` (stereo not drawn) [Compound 52]: 72.2% and 3980 nM.
The matching figures for `Cn1c(C2CCCN(Cc3ccc4scnc4c3)C2)cc2ncccc21` (stereo not drawn) [Compound 53]: 97.2% and 832 nM.
Turning to `Cn1c(CN2CCCC(c3cc4ncccc4n3C)C2)cc2ccccc21` (stereo not drawn) [Compound 54], the Emax under setting [1] was determined as 69.1%. Besides, the IC50 under setting [2] was 4070 nM.
In the same order, the values of `Cn1c(C2CCCN(Cc3cnc4c(c3)OCCO4)C2)cc2ncccc21` (stereo not drawn) [Compound 55] are 81.5% and 2190 nM.
For `Cn1c(C2CCCN(Cc3nc4ccccc4n3C)C2)cc2ncccc21` (stereo not drawn) [Compound 56], under setting [1], the Emax worked out at 98%. Besides, under setting [2], the IC50 was 832 nM.
In the same order, the values of `CC(=O)Nc1ncc(CN2CCNC(c3cc4ncccc4[nH]3)C2)s1` (stereo not drawn) [Compound 57] are 60.8% and 6610 nM.
As for `Cn1c(C2CCCN(Cc3ccc4cccnc4c3)C2)cc2ncccc21` (stereo not drawn) [Compound 63], the Emax under setting [1] turned out to be 23.9%. Also, under setting [2], the IC50 was above 10000 nM.
For `CC(=O)Nc1ncc(CN2CCCC(Cn3ccc4ncccc43)C2)s1` (stereo not drawn) [Compound 64], under setting [1], the maximal response (Emax) is 100%. Further, the IC50 under setting [2] was 7.76 nM.
